Data: article PMC7018972, “Novel and selective inactivators of Triosephosphate isomerase with anti-trematode activity” (Scientific Reports, 2020)

target: Fasciola hepatica TIM (FhTIM) (Fasciola hepatica, UniProt S4UI50); experiment: Inhibition of recombinant FhTIM, coupled enzyme assay; format: biochemical; conditions: Table 1S, screening of 340 compounds in FhTIM; table head prints no unit, µM per b8/b9
Method: Expression and purification of proteins: FhTIM, RabbitTIM and HsTIM were expressed in Escherichia coli and purified as described in the literature[31],[37]. […] Before use, extensive dialysis against 100 mM triethanolamine/10 mM EDTA (pH 7.4) was performed. […] Enzymatic activity was determined following the conversion of glyceraldehydes-3-phosphate into dihydroxyacetone phosphate in a coupled enzyme assay. The decrease in absorbance at 340 nm was followed in a multiplate reader VarioskanTM Flash Multimode Reader (Thermo ScientificTM, Waltham, MA, USA) at 38 °C. The reaction mixture (1 mL, pH 7.4) contained 100 mM triethanolamine, 10 mM EDTA, 0.2 mM NADH, 1 mM glyceraldehydes-3-phosphate and 0.9 units of α-glycerol phosphate dehydrogenase. The reaction was initiated by the addition of 5 ng/mL of the TIM of interest. For the inhibition studies, TIM was incubated at a concentration of 5 mg/mL in a buffer containing 100 mM triethanolamine, 10 mM EDTA, pH 7.4 and 10% of DMSO at 37 °C for 1 h. The mixture also contained the compounds, dissolved in DMSO, at the indicated concentrations. After 1 h, 10 µL were withdrawn and added to a final volume of 100 µL of the reaction mixture for the activity assay. The inhibition assay was performed in a 96-well microplate. […] The experiments were performed in triplicate in two independent experiments.

Fasciola hepatica TIM (FhTIM), sequence (S4UI50 entry or part of it): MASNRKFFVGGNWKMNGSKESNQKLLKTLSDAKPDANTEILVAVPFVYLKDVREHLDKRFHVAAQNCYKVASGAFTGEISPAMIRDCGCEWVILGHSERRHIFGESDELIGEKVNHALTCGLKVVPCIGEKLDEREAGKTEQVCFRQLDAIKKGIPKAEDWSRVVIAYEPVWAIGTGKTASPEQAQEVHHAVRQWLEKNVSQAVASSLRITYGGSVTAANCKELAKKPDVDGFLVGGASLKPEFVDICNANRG

SMILES	IC50
Clc1ccc(-c2c[se]c(=NN=CC=Cc3ccco3)n2CCN2CCOCC2)cc1 [Compound 1097]	50 to 100 µM

same assay, conditions: Table 1S, screening of 340 compounds in FhTIM; table head prints no unit, µM per b8/b9; read-out: IC50

IC50	SMILES
> 100 µM	O=[N+]([O-])c1c(Cl)cc2c(no[n+]2[O-])c1N1CCN(c2c([N+](=O)[O-])c(Cl)cc3c2no[n+]3[O-])CC1 [Compound 704]
> 100 µM	NC1=NS(=O)(=O)N(CCC2CCCCC2)c2nc(-c3ccc(F)cc3)[nH]c21 [Compound 706]
> 100 µM	COc1ccc(CN2c3nc(-c4ccccc4OC)[nH]c3C(N)=NS2(=O)=O)cc1 [Compound 707]
> 100 µM	NNC(=O)c1ccc2c(c1)OCO2 [Compound 711]
> 100 µM	Cc1ncc([N+](=O)[O-])n1CCI [Compound 712]
> 100 µM	NNC(=O)c1ccccn1 [Compound 717]
> 100 µM	NC1=NS(=O)(=O)N=C(N)C1N [Compound 723]
100 µM	O=[N+]([O-])c1cc(CI)ccc1F [Compound 769]
> 100 µM	O=C(CBr)c1csc(=NN=Cc2ccccc2)n1-c1ccccc1 [Compound 775]
> 100 µM	O=C(CBr)C(=O)CSC(=NN=Cc1ccccc1)Nc1ccccc1 [Compound 777]
> 100 µM	O=S(=O)(O)c1ccc(C=NN=c2scc(-c3csc(=NN=Cc4ccc(S(=O)(=O)O)o4)n3-c3ccccc3)n2-c2ccccc2)o1 [Compound 781]
> 100 µM	C=CCn1c(-c2csc(=NN=Cc3ccccc3)n2-c2ccccc2)csc1=NN=CC=Cc1ccco1 [Compound 782]
> 100 µM	C=CCn1c(-c2csc(=NN=Cc3ccccc3)n2-c2ccccc2)csc1=NN=Cc1ccc2ccccc2c1 [Compound 783]
> 100 µM	O=S(=O)(O)c1ccc(C=NN=c2scc(-c3csc(=NN=Cc4ccccc4)n3-c3ccccc3)n2-c2ccccc2)o1 [Compound 784]
> 100 µM	C=CCn1c(-c2csc(=NN=Cc3ccc(S(=O)(=O)O)o3)n2-c2ccccc2)csc1=NN=CC=Cc1ccco1 [Compound 785]
> 100 µM	C=CCNC(=S)NN=C(C)c1cc2ccccc2o1 [Compound 787]
> 100 µM	C=CCNC(=S)NN=Cc1ccc(C)o1 [Compound 788]
> 100 µM	C=CCn1c(C(=O)O)csc1=NN=C/C=C/c1ccc(C)o1 [Compound 789]
> 100 µM	C=CCn1c(-c2csc(=NN=CC=Cc3ccccc3)n2-c2ccccc2)csc1=NN=CC=Cc1ccco1 [Compound 791]
> 100 µM	O=C(C=CC=Cc1ccco1)C=CC=Cc1ccco1 [Compound 793]
> 100 µM	O=C(C=Cc1cccs1)C=Cc1cccs1 [Compound 796]
> 100 µM	O=C(C=CC=Cc1ccccc1)C=CC=Cc1ccccc1 [Compound 797]

IC50	SMILES
> 100 µM	O=C(C=CC=Cc1cccs1)C=CC=Cc1cccs1 [Compound 798]
100 µM	O=C1C(=Cc2ccccc2)CCCC1=Cc1ccccc1 [Compound 799]
> 100 µM	O=C1C(=CC=Cc2ccccc2)CCCC1=CC=Cc1ccccc1 [Compound 800]
> 100 µM	O=C1C(=Cc2cccs2)CCCC1=Cc1cccs1 [Compound 807]
> 100 µM	O=C1C(=Cc2ccco2)CCCC1=Cc1ccco1 [Compound 808]
> 100 µM	CC(C=CC(=O)C=CC(C)=Cc1ccco1)=Cc1ccco1 [Compound 809]
> 100 µM	Nc1nc(-c2ccccc2)cs1 [Compound 810]
> 100 µM	N#CSCC(=O)c1ccccc1 [Compound 811]
> 100 µM	Nc1nc(-c2ccc(Cl)cc2)cs1 [Compound 813]
> 100 µM	C(=CC=NN=c1scc(-c2ccccc2)n1-c1ccccc1)C=Cc1ccco1 [Compound 814]
> 100 µM	Cc1c(C(=O)NN=Cc2ccccc2)no[n+]1[O-] [Compound 824]
> 100 µM	C=CCn1c(-c2ccc(OC)cc2)csc1=NN=CC=Cc1ccco1 [Compound 871]
> 100 µM	C=CCn1c(-c2ccc(Cl)cc2)csc1=NN=CC=Cc1ccc(C)o1 [Compound 872]
> 100 µM	C(=Cc1ccco1)C=NN1CCN(Cc2ccccc2)CC1 [Compound 874]
50 to 100 µM	C=CCn1c(-c2ccccc2)csc1=NN=CC=Cc1cccs1 [Compound 875]
> 100 µM	C=CCn1c(-c2ccccc2)csc1=NN=Cc1ccc(S(=O)(=O)O)o1 [Compound 876]
50 to 100 µM	CC(/C=N/N1CCSCC1)=C\c1ccco1 [Compound 878]
> 100 µM	O=C1C(=C2Nc3ccccc3C2=O)Nc2ccccc21 [Compound 879]
100 µM	O=C(/C=C/c1ccco1)c1ccccc1O [Compound 881]
> 100 µM	C=CCNC(=S)NN=C(C=CC=Cc1ccc(C)o1)C=CC=Cc1ccc(C)o1 [Compound 900]
> 100 µM	Clc1ccc(-c2csc(NN=CC=Cc3ccco3)n2)cc1 [Compound 901]
> 100 µM	Cc1ccc(C=CC=NN2CCN(CC=Cc3ccccc3)CC2)o1 [Compound 903]

IC50	SMILES
> 100 µM	C=CCn1c(C)csc1=NN=Cc1ccc2ccccc2c1 [Compound 904]
> 100 µM	C=CCn1c(-c2ccc([N+](=O)[O-])cc2)csc1=NN=C/C=C/c1cccs1 [Compound 907]
50 to 100 µM	C=CCn1c(-c2ccccc2)csc1=NN=Cc1ccc2ccccc2c1 [Compound 908]
> 100 µM	Clc1ccc(-c2csc(N=CC=Cc3ccco3)n2)cc1 [Compound 910]
> 100 µM	C=CCNC(=S)NN=Cc1ccsc1 [Compound 911]
> 100 µM	C(=Cc1ccco1)C=NN1CCN(CC=Cc2ccccc2)CC1 [Compound 912]
> 100 µM	C=CCn1c(C(=O)O)csc1=NN=Cc1ccc(S(=O)(=O)O)o1 [Compound 913]
> 100 µM	COc1cc(/C=C/C(=O)CC(=O)/C=C/c2cc(OC)c3oc(=O)cc(C)c3c2)ccc1O [Compound 915]
> 100 µM	O=C1C(=CC=Cc2cccs2)CCC1=CC=Cc1cccs1 [Compound 1018]
50 to 100 µM	O=C1/C(=C/C=C/c2ccco2)CCC/C1=C\C=C\c1ccco1 [Compound 1019]
> 100 µM	O=C(C(O)c1ccccc1)C(O)c1ccccc1 (centres unmarked) [Compound 1083]
> 100 µM	S=C(NCc1ccccc1)NCc1ccccc1 [Compound 1085]
> 100 µM	O=c1cc(O)n(Cc2ccccc2)c(=S)n1Cc1ccccc1 [Compound 1088]
> 100 µM	C=CCn1c(C(=O)N2CCN(C)CC2)csc1=NN=C/C=C/c1ccco1 [Compound 1093]
> 100 µM	Nc1nc(-c2ccc([N+](=O)[O-])cc2)cs1 [Compound 1098]
> 100 µM	C=CCn1c(C(=O)CN2CCN(c3ccccc3)CC2)csc1=NN=CC=Cc1ccco1 [Compound 1099]
> 100 µM	C=CCn1c(C(=O)NN2CCN(CC=Cc3ccccc3)CC2)csc1=NN=CC=Cc1ccco1 [Compound 1100]
> 100 µM	CN(C)c1ccncc1 [Compound 1101]
> 100 µM	Cc1ccc(C=CC=CC(C=CC=Cc2ccc(C)o2)=NN2CCN(CC=Cc3ccccc3)CC2)o1 [Compound 1102]
> 100 µM	Cc1csc(=NN=Cc2cccs2)n1-c1ccccc1 [Compound 1103]
> 100 µM	CC(=O)Nc1ccc(C#N)cc1 [Compound 1104]
> 100 µM	NC(=NO)c1ccc(Br)cc1 [Compound 1105]

IC50	SMILES
> 100 µM	CC(=O)Nc1ccc(C=NO)cc1 [Compound 1106]
> 100 µM	ON=Cc1ccc(Br)cc1 [Compound 1107]
> 100 µM	Cc1ccc(/C=C/C=C/C(=O)/C=C/C=C/c2ccc(C)o2)o1 [Compound 1108]
> 100 µM	C=CCn1c(-c2ccccc2)csc1=NN=Cc1ccco1 [Compound 1109]
> 100 µM	C=CCn1c(C)csc1=NN=Cc1ccco1 [Compound 1110]
> 100 µM	C=CCn1c(C(=O)CN2CCN(CC=Cc3ccccc3)CC2)csc1=NN=CC=Cc1ccco1 [Compound 1112]
> 100 µM	ON=Cc1ccc(O)cc1 [Compound 1113]
> 100 µM	C=CCn1c(C(=O)CN2CCN(Cc3ccccc3)CC2)csc1=NN=CC=Cc1ccco1 [Compound 1114]
> 100 µM	C=CCn1c(C(=O)CNN2CCN(C/C=C/c3ccccc3)CC2)csc1=NN=C/C=C/c1ccco1 [Compound 1115]
> 100 µM	C=CCn1c(C(=O)CN2CCSCC2)csc1=NN=CC=Cc1ccco1 [Compound 1116]
> 100 µM	C=CCn1c(C(=O)N2CCN(Cc3ccccc3)CC2)csc1=NN=CC=Cc1ccco1 [Compound 1117]
> 100 µM	C=CCn1c(-c2csc(=NN=CC=Cc3cccs3)n2CC=C)csc1=NN=CC=Cc1cccs1 [Compound 1118]
> 100 µM	C(=Cc1ccccc1)CCN1CCN(CCC=Cc2ccccc2)CC1 [Compound 1119]
> 100 µM	NNC(=O)c1ccncc1 [Compound 1120]
> 100 µM	Cc1ccc(-c2cc(C(F)(F)F)nn2-c2ccc(S(N)(=O)=O)cc2)cc1 [Compound 1121]
> 100 µM	C=CCn1c(C(=O)NN2CCOCC2)csc1=NN=CC=Cc1ccco1 [Compound 1124]
> 100 µM	C=CCN1C(=O)CSC1=NN=C(C)[C@H]1CC[C@H]2[C@@H]3CC=C4CC(O)CC[C@]4(C)[C@H]3CC[C@]12C (some centres unmarked) [Compound 1125]
> 100 µM	C=CCn1c(C(=O)O)csc1=NN=CC=Cc1cccs1 [Compound 1126]
> 100 µM	C=CCn1c(C)csc1=NN=CC=Cc1cccs1 [Compound 1128]
